We go through two molecules from article PMC10388363, “Novel 1,4-Dihydropyridines as Specific Binders and Activators of SIRT3 Impair Cell Viability and Clonogenicity and Downregulate Hypoxia-Induced Targets in Cancer Cells” (Journal of Medicinal Chemistry, 2023).

Test [1] concerns the target T1, human SIRT3 (Homo sapiens, UniProt Q9NTG7).
T1 construct: pET151D/Topo (Sirt3-114-380 and Sirt5-34-302); His tag (N, cleaved yes); made in house; host or cells: Escherichia coli
T1 sequence (Q9NTG7 114-380): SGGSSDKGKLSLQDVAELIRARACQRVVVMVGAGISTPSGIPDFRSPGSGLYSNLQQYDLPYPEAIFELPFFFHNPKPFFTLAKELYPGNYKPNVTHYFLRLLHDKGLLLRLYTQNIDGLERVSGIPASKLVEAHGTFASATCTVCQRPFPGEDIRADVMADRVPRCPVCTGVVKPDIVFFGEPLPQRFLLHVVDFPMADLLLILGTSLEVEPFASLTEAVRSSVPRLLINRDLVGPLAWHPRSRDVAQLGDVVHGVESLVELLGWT
Put plainly: PncA/GDH-coupled deacylation assay, SIRT3 activation (ACS2-acK642 substrate). The test is classed as biochemical. The note with it: 100 μM, 387% vs 269%. On the procedure:
To avoid artifacts and other non-specific effects, instead of the “Fluor-de-Lys” (FdL) substrate, we used a PncA/GDH-coupled deacylation assay by measuring the NADPH oxidation to NADP^+ that relies on isoform-specific non-modified physiological acetyl or succinyl substrates [p53-acK381 for SIRT1, α-tubulin-[…] for SIRT2, acetyl-CoA synthetase 2 (ACS2)-acK642 for SIRT3, and CPS1-succK537 for SIRT5].[59] The assays were carried out using the 1,4-DHP derivatives 2a–n and 3a–d against SIRT3, including the prototype compounds 2 and 3 as positive controls.
N-terminally his-tagged human sirtuins were expressed in Escherichia coli using constructs in pET15b (Sirt1) or pET151D/Topo (Sirt3-114-380 and Sirt5-34-302).[4],[59],[61] Sirt2-43-356 was expressed from a modified pET19b containing a TEV protease cleavage site and an N-terminal SUMO-tag.[59],[79] Proteins were expressed and purified as described elsewhere.[59],[61],[79]−[81] In brief, proteins were expressed in E. coli, crude extracts were cleared by centrifugation, and the proteins were affinity purified using NiNTA beads.
Sirtuin deacylation activities were analyzed by using a coupled enzymatic assay as described in.[59],[82] […]

In test [2] the test system is acK68- and acK122-MnSOD in MDA-MB-231 cells. Put plainly: Western blot of MnSOD acK68 and acK122 marks in MDA-MB-231 cells. The test is classed as cell-based, human. The note with it: 4 h, MDA-MB-231. The procedure:
K68-MnSOD acetylation promotes a transformation-permissive phenotype, leading to a chemotherapy-resistant breast cancer cell model using cisplatin and doxorubicin.[68] […] The specific SIRT3 inhibitor 3-TYP was utilized as negative control.
Breast cancer cell line MDA-MB-231, anaplastic thyroid cancer cell line CAL-62 and human keratinocytes HaCaT were purchased from ATCC and were cultured in RPMI 1640 medium (R0883 Sigma Aldrich-MERCK) (MDA-MB-231 and CAL-62) or DMEM medium (11965092, Gibco) supplemented with 10% fetal bovine serum (Sigma-Aldrich-MERCK, F9665), 2 mM glutamine (G7513; Sigma-Aldrich-MERCK), 100 units/mL penicillin and 0.1 mg/mL streptomycin (P0781; Sigma-Aldrich-MERCK). Adherent cells were detached by Trypsin–EDTA solution (TA049; Sigma-Aldrich-MERCK). Cells were maintained at 37 °C in humidified incubator with 5% CO2. Cells were treated with […] (CoCl2) (Merck; C8661) dissolved in distilled, sterile water for 24 h to induce hypoxia (200 μM). […]
The following antibodies were used in this study: ACTB (Merck; A5316), HIF1-α (Cell Signaling; 14179), HIF2/EPAS-1 (Santa Cruz Biotechnology sc-13596), HXKII (Santa Cruz Biotechnology sc-6521), CAIX (Novus Biotechnology NB100-417), SIRT3 (Cell Signaling; 2627S), MnSOD (Abcam ab13533), MnSOD K68 (Abcam ab137037), MnSOD K122 (Abcam ab214675), peroxidase-conjugated AffiniPure Goat Anti-Rabbit IgG (H + L) (Jackson ImmunoResearch; 111-035-003), and peroxidase-conjugated AffiniPure Goat Anti-Mouse IgG (H + L) (Jackson ImmunoResearch; 115-035-062).
Treated and untreated cells were collected and centrifuged at 3000 rpm for 5 min. […] Protein concentration was determined by the Bradford assay (Bio-Rad; 500-0205). […] After three more washes in PBST, the detection of the relevant protein was assessed by enhanced chemiluminescence (Lite Ablot TURBO, Euro-Clone; EMP012001). […]
In general terms: A western blot detects proteins with antibodies after separation by electrophoresis.

In the case of `CCOC(=O)C1=CN(C(=O)c2ccc(OC)c(OC)c2)C=C(C(=O)OCC)C1c1ccccc1` [Compound 3c, Diethyl 1-(3,4-dimethoxybenzoyl)-4-phenyl-1,4-dihydropyridine-3,5-dicarboxylate], in test [1], the “SIRT3 activation potency relative to reference 3” value is listed as 1.4 fold. For `CCOC(=O)C1=CN(C(=O)c2cc(OC)cc(OC)c2)C=C(C(=O)OCC)C1c1ccccc1` [Compound 3d, Diethyl 1-(3,5-dimethoxybenzoyl)-4-phenyl-1,4-dihydropyridine-3,5-dicarboxylate], the acK122-MnSOD deacetylation result in test [2] (10 μM) was “significant acK122 deacetylation”. Also, the “ratio acK68- or acK122-MnSOD/MnSOD” value in test [2] (50 μM) is listed as “decrease”.
